Where “and” joins values, the source holds several entries; their conditions need not be identical. Identical values can stand only once.
System: 817829-284-R-J1-PDC complex spheroids, viability
Assay: Anticancer human tumor 817829-284-R-J1-PDC patient-derived colon adenocarcinoma cell line growth inhibition [CLK]
Conditions: for viability, T/C: stronger effect = lower value; for IC50: curve of compound
From the text: A high-throughput screen of multi-cell type tumor spheroids was designed to identify active combinations of […] and targeted small molecules. Complex spheroids include a stromal component modeled by human endothelial cells (HUVEC) and fibroblasts modeled by human mesenchymal stem cells (MSCs). The concentration ranges selected for each drug and investigational agent were based upon clinically achievable concentrations if the clinical Cmax of the agent was known.
Compounds. The drugs and investigational agents: cirtuvivint (SM08502; NSC835563), CC-671 (NSC850746), vemurafenib (NSC761431), tapotoclax (NSC804041), sotorasib (NSC818433), adagrasib (NSC831453), MRTX-1133 (NSC836407), BAY2416964 (NSC825713), copanlisib (NSC816437), inavolisib (NSC800729), abemaciclib (NSC768073), osimertinib (NSC779217), entinostat (NSC756642), eltanexor (KPT-8602, NSC794443), venetoclax (NSC766270), ceralasertib (NSC777638), bortezomib (NSC756655), olaparib (NSC753686), talazoparib (NSC767125), alisertib (NSC759677), peposertib (NSC802822), gemcitabine (NSC613327), 5-fluorouracil (NSC19893), SN-38 (NSC673596), oxaliplatin (NSC266046), paclitaxel (NSC125973), and doxorubicin (NSC123127), were obtained from the National Cancer Institute (NCI) Developmental Therapeutics Program Chemical Repository. The FDA-approved anticancer drug set is available from the Developmental Therapeutics Program at https://dtp.cancer.gov/organization/dscb/obtaining/available plates.htm. […] The stock solutions were prepared in dimethyl sulfoxide (DMSO, Sigma-Aldrich, St. Louis, MO, cat. D2650), except for the platinum complexes which were prepared in saline (Quality Biological, Gaithersburg, MD, cat. 114-055-101), at 800-fold the tested concentration and stored at -70 degrees C prior to their use. All drugs and investigational agents were tested over a range starting from a high concentration at or near the clinical Cmax and decreasing in half-log increments. If the clinical Cmax for an agent had not been determined, the highest concentration tested was 10 microM.
Cell Culture. All cells were maintained in an incubator at 37 degrees C and 5% CO2 with 95% humidity. The PDC lines were cultured according to standard operating procedures established by the NCI PDMR. Briefly, all PDCs were thawed and cultured in Matrigel-coated flasks prepared with a working solution of 1X Ham's F-12 nutrient mix, without supplementation (Invitrogen, Waltham, MA, cat. 11765054), 100 U/mL penicillin-streptomycin (Invitrogen, cat. 15140122), and 2.5% Matrigel (Corning Inc., Corning, NY, cat. 354248) for the first three passages. The 947758-054-R-J2-PDC line was cultured in 6B/Colon 1A media, which includes advanced DMEM/F-12 (Thermo Fisher Scientific, cat. 12634028), 10 mM HEPES (Thermo Fisher Scientific, cat. 15630080), 1X GlutaMAX supplement (Thermo Fisher Scientific, cat. 35050061), 0.1 mg/mL primocin (InvivoGen, cat. ant-pm-2), 10% defined fetal bovine serum, heat inactivated (HyClone Laboratories Inc., cat. SH30070.03HI), 1.25 mM N-Acetyl-L-cysteine (Sigma-Aldrich, cat. A9165), 10 mM nicotinamide (Sigma-Aldrich, cat. N0636), 1X B-27 supplement (Thermo Fisher Scientific, cat. 17504044), 1X N-2 supplement (Thermo Fisher Scientific, cat. 17502048), and 10 microM Y-27632 dihydrochloride (Tocris Bioscience, cat. 1254). The 876862-298-R-J1-PDC was cultured in 6E media, which includes all 6B/Colon 1A media components plus 50% L-WRN conditioned media (ATCC, cat. CRL-3276), 50 ng/mL recombinant human EGF recombinant protein (hEGF; Thermo Fisher Scientific, cat. PHG0311), 10 ng/mL recombinant human fibroblast growth factor 10 (hGFG-10; PeproTech, cat. 100-26), 1 ng/mL recombinant human fibroblast growth factor 2 (hFGF-2; PeproTech, cat. 100-18B), and 1 µM prostaglandin E2 (PGE2; Tocris, cat. 2296). The 227483-062-R1-J1-PDC line was cultured in Panc media, containing all 6E components except hFGF-2, with the addition of 500 nM SB-431542 (Selleckchem, cat. S1067) and 10 nM gastrin (Tocris, cat. 3006). […]
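Note: spheroids exposed to the agents for seven days before readout.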

SMILES: C#Cc1c(F)ccc2cc(O)cc(-c3ncc4c(N5CC6CCC(C5)N6)nc(OCC56CCCN5CC(F)C6)nc4c3F)c12 (stereo not drawn)
- viability, T/C (compound 0.0316 µM): 126% and 105%
- viability, T/C (compound 0.1 µM): 74% and 131%
- viability, T/C (compound 0.316 µM): 116% and 80.9%
- viability, T/C (compound 1 µM): 81.9% and 122%
- viability, T/C (compound 3.16 µM): 60% and 100%
- viability, T/C (compound 10 µM): 62.3% and 79.4%
- IC50: > 10 µM

SMILES: CC(=O)O[C@H]1C(=O)[C@@]2(C)[C@H]([C@H](OC(=O)c3ccccc3)[C@]3(O)C[C@H](OC(=O)[C@H](O)[C@@H](NC(=O)c4ccccc4)c4ccccc4)C(C)=C1C3(C)C)[C@]1(OC(C)=O)CO[C@@H]1C[C@@H]2O
- viability, T/C (compound 0.0316 µM): 5.82% and 6.97%
- viability, T/C (compound 0.1 µM): 4.87% and 7.28%
- viability, T/C (compound 0.316 µM): 5.22% and 6.91%
- viability, T/C (compound 1 µM): 5.4% and 7.87%
- viability, T/C (compound 3.16 µM): 6.88% and 8.37%
- viability, T/C (compound 10 µM): 6.36% and 7.7%
- IC50: < 0.0316 µM

SMILES: CC(CO)NC(=O)c1cc(-c2ccc(Cl)cc2)nn(-c2cnn(C)c2)c1=O (stereo not drawn)
- viability, T/C (compound 0.0316 µM): 119% and 99.1%
- viability, T/C (compound 0.1 µM): 68.1% and 82.7%
- viability, T/C (compound 0.316 µM): 102% and 165%
- viability, T/C (compound 1 µM): 108% and 100%
- viability, T/C (compound 3.16 µM): 79.3% and 88.4%
- viability, T/C (compound 10 µM): 42.8% and 52.4%
- IC50: 7.96 µM and > 10 µM

SMILES: CC(Nc1ccc2c(c1)OCCn1cc(N3C(=O)OCC3C(F)F)nc1-2)C(N)=O (stereo not drawn)
- viability, T/C (compound 0.0316 µM): 62.2% and 116%
- viability, T/C (compound 0.1 µM): 92% and 69.5%
- viability, T/C (compound 0.316 µM): 72.2% and 60.7%
- viability, T/C (compound 1 µM): 51.6% and 59.1%
- viability, T/C (compound 3.16 µM): 52.4% and 39.5%
- viability, T/C (compound 10 µM): 35.8% and 37.7%
- IC50: 1.42 µM and 0.834 µM

SMILES: CC1(C)CCC(CN2CCN(c3ccc(C(=O)NS(=O)(=O)c4ccc(NCC5CCOCC5)c([N+](=O)[O-])c4)c(Oc4cnc5[nH]ccc5c4)c3)CC2)=C(c2ccc(Cl)cc2)C1
- viability, T/C (compound 0.0316 µM): 103%
- viability, T/C (compound 0.1 µM): 85.1%
- viability, T/C (compound 0.316 µM): 98.6%
- viability, T/C (compound 1 µM): 63.7%
- viability, T/C (compound 3.16 µM): 77.5%
- viability, T/C (compound 10 µM): 2.29%
- IC50: 4.31 µM

SMILES: CC1COCCN1c1cc(C2(S(C)(=N)=O)CC2)nc(-c2ccnc3[nH]ccc23)n1 (stereo not drawn)
- viability, T/C (compound 0.0316 µM): 63.5%
- viability, T/C (compound 0.1 µM): 99.9%
- viability, T/C (compound 0.316 µM): 62.4%
- viability, T/C (compound 1 µM): 39%
- viability, T/C (compound 3.16 µM): 9.17%
- viability, T/C (compound 10 µM): 4.99%
- IC50: 0.626 µM

SMILES: COc1ccc([C@@H](O)c2cc(-c3ncnc4cc(N5CCOCC5)ccc34)c(F)cc2Cl)nn1
- viability, T/C (compound 0.0316 µM): 117%
- viability, T/C (compound 0.1 µM): 105%
- viability, T/C (compound 0.316 µM): 86.4%
- viability, T/C (compound 1 µM): 48.6%
- viability, T/C (compound 3.16 µM): 31.6%
- viability, T/C (compound 10 µM): 21.2%
- IC50: 1.04 µM

SMILES: COc1cccc2c1C(=O)c1c(O)c3c(c(O)c1C2=O)CC(O)(C(=O)CO)CC3OC1CC(N)C(O)C(C)O1 (stereo not drawn)
- viability, T/C (compound 0.0316 µM): 20.5%
- viability, T/C (compound 0.1 µM): 16.4%
- viability, T/C (compound 0.316 µM): 4.21%
- viability, T/C (compound 1 µM): 0.22%
- viability, T/C (compound 3.16 µM): 0.3%
- viability, T/C (compound 10 µM): 0.85%
- IC50: < 0.0316 µM

SMILES: Nc1ccccc1NC(=O)c1ccc(CNC(=O)OCc2cccnc2)cc1
- viability, T/C (compound 0.0316 µM): 89%
- viability, T/C (compound 0.1 µM): 85.3%
- viability, T/C (compound 0.316 µM): 53.5%
- viability, T/C (compound 1 µM): 35.9%
- viability, T/C (compound 3.16 µM): 10%
- viability, T/C (compound 10 µM): 0.1%
- IC50: 0.465 µM
